Data reported in the supplement of paper PMC10307832.

Columns and labels:
Assay in all cases: relative viability (nuclei count vs DMSO), 5 days (fraction); higher = more cells survive
Ibrutinib + Lapatinib = compound: C=CC(=O)N1CCC[C@@H](n2nc(-c3ccc(Oc4ccccc4)cc3)c3c(N)ncnc32)C1 [Ibrutinib] + CS(=O)(=O)CCNCc1ccc(-c2ccc3ncnc(Nc4ccc(OCc5cccc(F)c5)c(Cl)c4)c3c2)o1 [Lapatinib] (partner 2 µM)
Outline: (§1)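 Nuclei were stained with Hoechst during a one-step fixation (final 0.05% Triton X-100, 1% formaldehyde, 1 ug/ml Hoechst) carried out 5 days after dosing, then counted on 4× images. The cells, lung cancer lines in 1536-well plates, had been dosed by pin tool the day after seeding with one drug alone or a fixed anchor-drug dose plus five library-drug doses (not always all listed) in √10 steps. Relative viability is the nuclei count in treated wells divided by that in vehicle wells, and each value is the median of duplicate plates.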

BMX-IN-1 + Linsitinib = compound: C=CC(=O)Nc1cc(-n2c(=O)ccc3cnc4ccc(-c5ccc(NS(C)(=O)=O)cc5)cc4c32)ccc1C [BMX-IN-1] + C[C@]1(O)C[C@@H](c2nc(-c3ccc4ccc(-c5ccccc5)nc4c3)c3c(N)nccn32)C1 [Linsitinib] (partner 1 µM)
Outline: as §1

PAC-1 + Palbociclib = compound: C=CCc1cccc(/C=N/NC(=O)CN2CCN(Cc3ccccc3)CC2)c1O [PAC-1] + CC(=O)c1c(C)c2cnc(Nc3ccc(N4CCNCC4)cn3)nc2n(C2CCCC2)c1=O [Palbociclib] (partner 0.5 µM)
Outline: as §1

PAC-1 + Decitabine = compound: C=CCc1cccc(/C=N/NC(=O)CN2CCN(Cc3ccccc3)CC2)c1O [PAC-1] + Nc1ncn([C@H]2C[C@H](O)[C@@H](CO)O2)c(=O)n1 [Decitabine] (partner 2 µM)
Outline: as §1

Row | Cell Line | relative viability (Ibrutinib + Lapatinib; first compound 0.005 µM) | relative viability (Ibrutinib + Lapatinib; first compound 0.01581 µM) | relative viability (Ibrutinib + Lapatinib; first compound 0.05 µM) | relative viability (Ibrutinib + Lapatinib; first compound 0.1581 µM) | relative viability (Ibrutinib + Lapatinib; first compound 0.5 µM) | relative viability (BMX-IN-1 + Linsitinib; first compound 0.02 µM) | relative viability (BMX-IN-1 + Linsitinib; first compound 0.2 µM) | relative viability (BMX-IN-1 + Linsitinib; first compound 0.6325 µM) | relative viability (BMX-IN-1 + Linsitinib; first compound 2 µM) | relative viability (PAC-1 + Palbociclib; first compound 0.02 µM) | relative viability (PAC-1 + Palbociclib; first compound 0.06325 µM) | relative viability (PAC-1 + Palbociclib; first compound 0.2 µM) | relative viability (PAC-1 + Palbociclib; first compound 2 µM) | relative viability (PAC-1 + Decitabine; first compound 0.02 µM) | relative viability (PAC-1 + Decitabine; first compound 0.06325 µM) | relative viability (PAC-1 + Decitabine; first compound 0.2 µM) | relative viability (PAC-1 + Decitabine; first compound 2 µM)
1 | ABC-1 | 1.14 | 1.19 | 1.29 | 1.19 | 1.26 | 0.993 | 0.807 | 0.775 | 0.764 | 0.63 | 0.742 | 0.678 | 0.638 | 0.809 | 1.06 | 1.05 | 1.16
2 | LC-2-ad | 0.938 | 0.577 | 0.972 | 0.911 | 0.968 | 1.03 | 0.861 | 0.823 | 0.852 | 0.513 | 0.439 | 0.492 | 0.496 | 0.827 | 0.75 | 0.779 | 0.672
3 | NCI-H727 | 0.734 | 0.735 | 1.2 | 0.496 | 0.852 | 0.325 | 0.393 | 0.261 | 0.27 | 0.516 | 0.597 | 0.681 | 0.714 | 0.982 | 0.809 | 0.772 | 0.98
4 | COR-L23 | 1.24 | 0.948 |  | 0.964 | 0.982 | 1.62 | 1.11 | 0.994 | 1.01 | 0.33 | 0.243 |  | 0.277 | 0.487 | 0.428 |  | 0.418
5 | NCI-H3122 | 0.953 | 1.03 | 1.04 | 0.948 | 0.99 | 1.04 | 1.08 | 1.01 | 1.02 | 0.188 | 0.179 | 0.198 | 0.214 | 0.489 | 0.455 | 0.362 | 0.446
6 | NCI-H322M | 0.527 | 0.652 | 0.621 | 0.512 | 0.585 | 0.911 | 0.971 | 0.891 | 0.975 | 0.434 | 0.42 | 0.519 | 0.466 | 0.691 | 0.711 | 0.689 | 0.751
7 | HCC-44 | 1.09 | 0.948 | 1.02 | 1.08 | 1.02 | 0.804 | 0.735 | 0.702 | 0.642 | 1.04 | 0.984 | 0.965 | 0.993 | 1.03 | 0.914 | 0.855 | 0.933
8 | NCI-H2347 | 0.962 | 0.899 | 0.897 | 0.555 | 0.861 | 1.1 | 1.02 | 1.04 | 0.958 | 0.499 | 0.435 | 0.477 | 0.414 | 0.637 | 0.598 | 0.606 | 0.621
9 | HCC-827 | 0.169 | 0.206 | 0.208 | 0.174 | 0.173 | 1.05 | 1.01 | 0.999 | 0.969 | 0.482 | 0.461 | 0.442 | 0.473 | 0.354 | 0.285 | 0.277 | 0.292
10 | LOU-NH91 | 0.638 | 0.786 | 0.774 | 0.737 | 0.694 |  | 0.976 | 0.993 | 0.919 | 0.573 | 0.539 | 0.526 | 0.515 | 0.813 | 0.813 | 0.811 | 0.796
11 | NCI-H1651 | 0.699 | 0.756 | 0.796 | 0.723 | 0.906 | 1.22 | 0.885 | 0.912 | 0.86 | 0.525 | 0.536 | 0.547 | 0.499 | 0.649 | 0.552 | 0.39 | 0.675
12 | NCI-H1792 | 0.907 | 0.896 | 0.913 | 0.73 | 0.912 | 0.431 | 0.795 | 0.449 | 0.51 | 0.692 | 0.627 | 0.64 | 0.627 | 0.539 | 0.521 | 0.482 | 0.483
13 | PC-3 [JPC-3] | 0.389 | 0.45 | 0.439 | 0.413 | 0.444 | 0.962 | 0.978 | 1.03 | 0.988 | 0.567 | 0.502 | 0.535 | 0.514 | 0.938 | 0.861 | 0.698 | 0.77
14 | NCI-H838 | 0.796 | 0.893 | 1 | 0.894 | 1.08 | 1.19 | 1.26 | 1.2 | 1.08 | 0.239 | 0.227 | 0.22 | 0.229 | 0.425 | 0.45 | 0.462 | 0.445
15 | NCI-H358 | 0.403 | 0.466 | 0.475 | 0.406 | 0.43 | 1 | 0.732 | 0.816 | 0.806 | 0.12 | 0.133 | 0.116 | 0.115 | 0.229 | 0.219 | 0.209 | 0.16
16 | NCI-H647 | 0.799 | 0.934 | 1.06 | 1.11 | 1.19 | 1.36 | 1.8 | 1.25 | 1.02 | 0.288 | 0.37 | 0.35 | 0.409 | 0.358 | 0.403 | 0.328 | 0.321
17 | HCC-366 | 1.07 | 0.978 | 1.02 | 0.959 | 1.19 | 0.779 | 0.995 | 0.736 | 0.601 | 0.364 | 0.377 | 0.365 | 0.404 | 0.373 | 0.303 | 0.264 | 0.337
